Legend:
[1] = in vitro; conditions: human, TOX HELA CC50 (μM)
Protocol: Black 384-well clear-bottom microtiter plates (Corning, Amsterdam, The Netherlands) were filled via acoustic drop ejection using the echo liquid handler (Labcyte, Sunnyvale, Calif.). 200 nL of compound stock solutions (100% DMSO) were transferred to the assay plates. 9 serial 4-fold dilutions of compound were made, creating per quadrant the same compound concentration. The assay was initiated by adding 10 μL of culture medium to each well (RPMI medium without phenol red, 10% FBS-heat inactivated, 0.04% gentamycin (50 mg/mL). All addition steps are done by using a multidrop dispenser (Thermo Scientific, Erembodegem, Belgium). Next, rgRSV224 virus (MOI=1) diluted in culture medium was added to the plates. rgRSV224 virus is an engineered virus that includes an additional GFP gene (Hallak L K, Spillmann D, Collins P L, Peeples M E. Glycosaminoglycan sulfation requirements for respiratory syncytial virus infection; Journal of virology (2000), 74(22), 10508-13) and was in-licensed from the NIH (Bethesda, Md., USA). Finally, 20 μL of a HeLa cell suspension (3,000 cells/well) were plated. Medium, virus- and mock-infected controls were included in each test. The wells contain 0.05% DMSO per volume. Cells were incubated at 37° C. in a 5% CO2 atmosphere. Three days post-virus exposure, viral replication was quantified by measuring GFP expression in the cells by an in house developed MSM laser microscope (Tibotec, Beerse, Belgium). The EC50 was defined as the 50% inhibitory concentration for GFP expression. In parallel, compounds were incubated for three days in a set of white 384-well microtiter plates (Corning) and the cytotoxicity of compounds in HeLa cells was determined by measuring the ATP content of the cells using the ATPlite kit (Perkin Elmer, Zaventem, Belgium) according to the manufacturer's instructions. The CC50 was defined as the 50% concentration for cytotoxicity.

[2] = system: rgRSV224 virus; experiment: Antiviral activity: rgRSV224 (GFP) replication in HeLa cells; format: cell-based, respiratory syncytial virus (RSV); conditions: human respiratory syncytial virus, HeLa, 72 h, read-out: RSV HELA EC50 (μM), rgRSV224 virus (MOI=1), HeLa cells, GFP expression three days post-virus exposure

Compound	CC50 at 3 days [1]	EC50 [2]
C[C@@H]1c2ccccc2CCN1C(=O)c1cc(C2CC2)n2nc(-c3ccc(N4C[C@@H](O)[C@@H](F)C4)cc3F)cc2n1 (relative stereo) [Compound 107, (7-cyclopropyl-2-(2-fluoro-4-(cis-3-fluoro-4-hydroxypyrrolidin-1-yl)phenyl)pyrazolo[1,5-a]pyrimidin-5-yl)((R)-1-methyl-3,4-dihydroisoquinolin-2(1H)-yl)methanone]	21.2 µM	0.017 µM
C[C@@H]1c2ccccc2CCN1C(=O)c1cc(C2CC2)n2nc(-c3ccc(N4CC[C@](C)(CC(N)=O)C4)cc3F)cc2n1 (single isomer, unassigned) [Compound 23, 2-[(3*R)-1-(4-{7-Cyclopropyl-5-[(1R)-1-methyl-1,2,3,4-tetrahydroisoquinoline-2-carbonyl]pyrazolo[1,5-a]pyrimidin-2-yl}-3-fluorophenyl)-3-methylpyrrolidin-3-yl]acetamide]	30.3 µM	0.032 µM
C[C@@H]1c2ccccc2CCN1C(=O)c1cc(C2CC2)n2nc(-c3ccc(N4CC[C@@](C)(CC(N)=O)C4)cc3F)cc2n1 (single isomer, unassigned) [Compound 24, 2-[(3*S)-1-(4-{7-Cyclopropyl-5-[(1R)-1-methyl-1,2,3,4-tetrahydroisoquinoline-2-carbonyl]pyrazolo[1,5-a]pyrimidin-2-yl}-3-fluorophenyl)-3-methylpyrrolidin-3-yl]acetamide]	26.4 µM	0.03 µM
C[C@@H]1c2ccsc2CCN1C(=O)c1cc(C2CC2)n2nc(-c3ccc(N4CC[C@](C)(CC(N)=O)C4)cc3F)cc2n1 (single isomer, unassigned) [Compound 25, 2-[(3*R)-1-(4-{7-Cyclopropyl-5-[(4*R)-4-methyl-4,5,6,7-tetrahydro-thieno[3,2-c]pyridine-5-carbonyl]pyrazolo[1,5-a]pyrimidin-2-yl}-3-fluorophenyl)-3-methylpyrrolidin-3-yl]acetamide]	29.6 µM	0.023 µM
C[C@@H]1c2ccsc2CCN1C(=O)c1cc(C2CC2)n2nc(-c3ccc(N4CC[C@@](C)(CC(N)=O)C4)cc3F)cc2n1 (single isomer, unassigned) [Compound 26, 2-[(3*S)-1-(4-{7-Cyclopropyl-5-[(4*R)-4-methyl-4,5,6,7-tetrahydro-thieno[3,2-c]pyridine-5-carbonyl]pyrazolo[1,5-a]pyrimidin-2-yl}-3-fluorophenyl)-3-methylpyrrolidin-3-yl]acetamide]	29.6 µM	0.02 µM
C[C@@H]1c2ccccc2CCN1C(=O)c1cc(C2CC2)n2nc(-c3ccc(N4CC[C@H](C(C)(C)C(N)=O)C4)cc3F)cc2n1 (single isomer, unassigned) [Compound 27, 2-[(3*R)-1-(4-{7-Cyclopropyl-5-[(1R)-1-methyl-1,2,3,4-tetrahydroisoquinoline-2-carbonyl]pyrazolo[1,5-a]pyrimidin-2-yl}-3-fluorophenyl)pyrrolidin-3-yl]-2-methylpropanamide]	34.4 µM	0.089 µM
C[C@@H]1c2ccccc2CCN1C(=O)c1cc(C2CC2)n2nc(-c3ccc(N4CC[C@@H](C(C)(C)C(N)=O)C4)cc3F)cc2n1 (single isomer, unassigned) [Compound 28, 2-[(3*S)-1-(4-{7-Cyclopropyl-5-[(1R)-1-methyl-1,2,3,4-tetrahydroisoquinoline-2-carbonyl]pyrazolo[1,5-a]pyrimidin-2-yl}-3-fluorophenyl)pyrrolidin-3-yl]-2-methylpropanamide]	32.2 µM	0.072 µM
C[C@@H]1c2ccccc2CCN1C(=O)c1cc(-c2ccc(Cl)cc2)n2nc(-c3ccc(N4CC[C@H](C(N)=O)C4)cc3F)cc2n1 [Compound 59, (3S)-1-{4-[7-(4-Chlorophenyl)-5-[(1R)-1-methyl-1,2,3,4-tetrahydroisoquinoline-2-carbonyl]pyrazolo[1,5-a]pyrimidin-2-yl]-3-fluorophenyl}pyrrolidine-3-carboxamide]	–	0.047 µM
